Three compounds from publication PMC5482243 (Investigative Ophthalmology & Visual Science, 2017) can be followed below.

Assay in all cases: β-arrestin recruitment assay
Common to all, as to assay type: cell-based
Background: Activated receptors often draw arrestin, which recruitment assays turn into a signal.

Experiment [1] concerns the target T1, GPR143 (pm-GPR143) (Homo sapiens, UniProt P51810, E330A/L223A/L224A/W329A).
Experiment [2] has as its target T1, GPR143 (pm-GPR143). This is another data set of the same source.
The next experiment has as its target GPR143 (wt-GPR143) (Homo sapiens, UniProt P51810).

In general, EC50 refers to the concentration needed to bring the measured effect to its halfway point. A high value points to a less potent agent.

Read-outs that look alike come from different tables or passages of the source.

T1 sequence (P51810 whole entry L223A/L224A/W329A/E330A): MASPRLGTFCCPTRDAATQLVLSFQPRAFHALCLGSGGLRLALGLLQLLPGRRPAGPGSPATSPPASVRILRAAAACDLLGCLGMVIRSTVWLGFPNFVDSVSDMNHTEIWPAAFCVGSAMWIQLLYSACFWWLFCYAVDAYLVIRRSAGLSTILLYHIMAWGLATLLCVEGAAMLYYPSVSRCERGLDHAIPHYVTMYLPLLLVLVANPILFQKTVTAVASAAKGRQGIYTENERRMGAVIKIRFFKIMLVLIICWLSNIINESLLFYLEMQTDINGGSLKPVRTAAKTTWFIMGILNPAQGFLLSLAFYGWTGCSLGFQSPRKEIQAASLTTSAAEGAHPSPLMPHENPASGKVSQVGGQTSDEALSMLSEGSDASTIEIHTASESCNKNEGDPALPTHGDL
Sequence of GPR143 (wt-GPR143) (P51810 whole entry): as the sequence (P51810 whole entry L223A/L224A/W329A/E330A) above, with A223L, A224L, A329W, A330E counted along it

With `CCOc1ccc2nc3cc(N)ccc3c(N)c2c1` [ethacridine lactate], on GPR143 (pm-GPR143) [1], the EC50 stood at 26.1 ± 1.03 µM.

At GPR143 (pm-GPR143) [1], `O=C(Nc1ccc([N+](=O)[O-])cc1Cl)c1cc(Cl)ccc1O` [niclosamide] yielded an EC50 of 3.4 ± 1.11 µM.

For the compound `O=c1[nH]c2ccccc2n1C1CCN(CCCC(c2ccc(F)cc2)c2ccc(F)cc2)CC1` [pimozide], the EC50 at GPR143 (pm-GPR143) [2] came out at 2.72 ± 1.17 µM; on GPR143 (wt-GPR143), 4.62 ± 1.37 µM.
